How the values were obtained:
ECHCG [1] = assay: Herbicidal pre-emergence action (Table A2); type: in vivo, Echinochloa crus-galli; conditions: application rate 320 g/ha; visual grading after ca. 3 weeks
Summary of the method: (§1)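 Seeds of monocot and dicot weeds were sown in pots of sandy loam and covered with soil. Each pot held a double sowing: one monocotyledonous plus one dicotyledonous species.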

BRSNW [2] = assay: Post-emergence effects on crop plants (Table F5); type: in vivo, Brassica napus; conditions: application rate 320 g/ha, crop plant BRSNW
From the text: (§2) 2 to 3 weeks after sowing, the test plants were sprayed in the single-leaf stage.

ALOMY = assay: Herbicidal pre-emergence action, section C (Table C2); type: in vivo, Alopecurus myosuroides; conditions: application rate 320 g/ha; visual grading after ca. 3 weeks
TRZAS [3] = assay: Post-emergence effects on crop plants (Table F2); type: in vivo, Triticum aestivum; conditions: application rate 320 g/ha, crop plant TRZAS
From the text: as §2

SETVI [4] = assay: Herbicidal pre-emergence action (Table A5); type: in vivo, Setaria viridis; conditions: application rate 1280 g/ha; visual grading after ca. 3 weeks
Summary of the method: as §1

VIOTR = assay: Herbicidal pre-emergence action, section C (Table C12); type: in vivo, Viola tricolor; conditions: application rate 320 g/ha; visual grading after ca. 3 weeks
TRZAS [5] = assay: Pre-emergence effects on crop plants (Table D2); type: in vivo, Triticum aestivum; conditions: crop plant; application rate 80 g/ha; visual grading after ca. 3 weeks
LOLRI = assay: Herbicidal pre-emergence action (Table A3); type: in vivo, Lolium rigidum; conditions: application rate 320 g/ha; visual grading after ca. 3 weeks
Summary of the method: as §1

ORYZA = assay: Post-emergence effects on crop plants (Table F3); type: in vivo, Oryza sativa; conditions: application rate 320 g/ha, crop plant ORYZA
From the text: as §2

GLXMA [6] = assay: Pre-emergence effects on crop plants (Table D4); type: in vivo, Glycine max; conditions: crop plant; application rate 80 g/ha; visual grading after ca. 3 weeks
ECHCG [7] = assay: Herbicidal pre-emergence action, section C (Table C6); type: in vivo, Echinochloa crus-galli; conditions: application rate 320 g/ha; visual grading after ca. 3 weeks
From the text: (§4) Seeds of mono- and dicotyledonous weed plants and crop plants were sown, in plastic or organic planting pots, in sandy loam and covered with soil. The compounds according to the invention, formulated in the form of wettable powders (WP) or as emulsifiable concentrates (EC), were applied to the surface of the covering soil as aqueous suspension or emulsion, with the addition of 0.5% of an additive, at an application rate of 600 1 of water/ha (converted). Following treatment, the pots were placed in a greenhouse and kept under optimum growth conditions for the test plants.

SETVI [8] = assay: Herbicidal pre-emergence action, section C (Table C10); type: in vivo, Setaria viridis; conditions: application rate 80 g/ha; visual grading after ca. 3 weeks
POAAN = assay: Herbicidal post-emergence action (Table B7); type: in vivo, Poa annua; conditions: application rate 1280 g/ha
Summary of the method: (§3)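 Greenhouse pot assay, sandy loam soil, one weed species per pot. Application at one-leaf stage. Readout ~3 wk post-treatment: visual % activity, 100 = dead, 0 = as untreated.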

ECHCG [9] = assay: Herbicidal post-emergence action (Table B3); type: in vivo, Echinochloa crus-galli; conditions: application rate 1280 g/ha; rated visually after about 3 weeks
Summary of the method: as §3

AMARE = assay: Herbicidal pre-emergence action, section C (Table C3); type: in vivo, Amaranthus retroflexus; conditions: application rate 320 g/ha; visual grading after ca. 3 weeks
ZEAMX [10] = assay: Post-emergence effects on crop plants (Table F1); type: in vivo, Zea mays; conditions: application rate 320 g/ha, crop plant ZEAMX
From the text: as §2

ECHCG [11] = assay: Herbicidal post-emergence action, section E (Table E5); type: in vivo, Echinochloa crus-galli; conditions: application rate 320 g/ha; assessed visually after ca. 3 weeks
From the text: as §2

VERPE [12] = assay: Herbicidal post-emergence action (Table B10); type: in vivo, Veronica persica; conditions: application rate 1280 g/ha
Summary of the method: as §3

ZEAMX [13] = assay: Pre-emergence effects on crop plants (Table D1); type: in vivo, Zea mays; conditions: crop plant; application rate 80 g/ha; visual grading after ca. 3 weeks
BRSNW [14] = assay: Pre-emergence effects on crop plants (Table D5); type: in vivo, Brassica napus; conditions: crop plant; application rate 320 g/ha; visual grading after ca. 3 weeks
DIGSA = assay: Herbicidal pre-emergence action, section C (Table C5); type: in vivo, Digitaria sanguinalis; conditions: application rate 320 g/ha; visual grading after ca. 3 weeks
ABUTH = assay: Herbicidal pre-emergence action, section C (Table C1); type: in vivo, Abutilon theophrasti; conditions: application rate 320 g/ha; visual grading after ca. 3 weeks
From the text: as §4

VERPE [15] = assay: Herbicidal pre-emergence action, section C (Table C11); type: in vivo, Veronica persica; conditions: application rate 320 g/ha; visual grading after ca. 3 weeks
From the text: as §4

MATIN = assay: Herbicidal pre-emergence action, section C (Table C8); type: in vivo, Matricaria inodora; conditions: application rate 320 g/ha; visual grading after ca. 3 weeks
GLXMA [16] = assay: Post-emergence effects on crop plants (Table F4); type: in vivo, Glycine max; conditions: application rate 320 g/ha, crop plant GLXMA
From the text: as §2

For `O=C1N(Cc2ccccc2)CCCC12CCCN(Cc1ccccc1Cl)C2=O` (racemic) [I-066], the “pre-emergence activity against ECHCG” value (ECHCG [1]) was 100%, the “post-emergence activity against BRSNW” value (BRSNW [2]) was 0% and the “pre-emergence activity against ALOMY” value (ALOMY) was 90%. For the same compound, the “post-emergence activity against TRZAS” value (TRZAS [3]) was 0%, the “pre-emergence activity against SETVI” value (SETVI [4]) was 100% and the “pre-emergence activity against VIOTR” value (VIOTR) was 80%. For the same compound, the “pre-emergence activity against TRZAS” value (TRZAS [5]) was 0%, the “pre-emergence activity against LOLRI” value (LOLRI) was 100% and the “post-emergence activity against ORYZA” value (ORYZA) was 0%. For the same compound, the “pre-emergence activity against GLXMA” value (GLXMA [6]) was 0%, the “pre-emergence activity against ECHCG” value (ECHCG [7]) was 80% and the “pre-emergence activity against SETVI” value (SETVI [8]) was 100%. The “post-emergence activity against POAAN” value (POAAN) was 90%, the “post-emergence activity against ECHCG” value (ECHCG [9]) was 90% and the “pre-emergence activity against AMARE” value (AMARE) was 90%. The “post-emergence activity against ZEAMX” value (ZEAMX [10]) was 0%, the “post-emergence activity against ECHCG” value (ECHCG [11]) was 80% and the “post-emergence activity against VERPE” value (VERPE [12]) was 90%. The “pre-emergence activity against ZEAMX” value (ZEAMX [13]) was 10% and the “pre-emergence activity against BRSNW” value (BRSNW [14]) was 0%.
For `O=C1N(Cc2cc(F)c(F)cc2F)CCCC12CCCN(Cc1cc(F)c(F)cc1F)C2=O` (racemic) [I-213, 2,8-bis[(2,4,5-trifluorophenyl)methyl]-2,8-diazaspiro[5.5]undecane-1,7-dione], the “pre-emergence activity against ALOMY” value (ALOMY) was 90%, the “pre-emergence activity against ECHCG” value (ECHCG [7]) was 100% and the “pre-emergence activity against DIGSA” value (DIGSA) was 80%. For the same compound, the “pre-emergence activity against AMARE” value (AMARE) was 90%.
In the case of `O=C1N(Cc2c(F)cccc2F)CCCC12CCCN(Cc1c(F)cccc1F)C2=O` (single isomer, unassigned; (+)) [I-083, (+)-2,8-bis[(2,6-difluorophenyl)methyl]-2,8-diazaspiro[5.5]undecane-1,7-dione], the “pre-emergence activity against ABUTH” value (ABUTH) was 100%, the “pre-emergence activity against VERPE” value (VERPE [15]) was 100% and the “post-emergence activity against BRSNW” value (BRSNW [2]) was 0%. For the same compound, the “pre-emergence activity against MATIN” value (MATIN) was 100%, the “pre-emergence activity against ALOMY” value (ALOMY) was 90% and the “post-emergence activity against TRZAS” value (TRZAS [3]) was 10%. The “pre-emergence activity against VIOTR” value (VIOTR) was 100%, the “post-emergence activity against ORYZA” value (ORYZA) was 0% and the “pre-emergence activity against DIGSA” value (DIGSA) was 90%. For the same compound, the “pre-emergence activity against AMARE” value (AMARE) was 100%, the “post-emergence activity against ZEAMX” value (ZEAMX [10]) was 0% and the “post-emergence activity against GLXMA” value (GLXMA [16]) was 0%.

— patent EP4273147A1, “SUBSTITUTED SPIROLACTAMS, SALTS THEREOF AND THEIR USE AS HERBICIDALLY ACTIVE SUBSTANCES” (Bayer Aktiengesellschaft, priority 2022, dated 2023)
